Assay results: patent publication US11753404B2, “Aminothiazole compounds as c-Kit inhibitors” (Ariad Pharmaceuticals, Inc., priority 2016, dated 2023)

Experiments:
BAF3 FL KIT EX11DEL = biological target: T1, BAF3 FL KIT EX11DEL (Homo sapiens, UniProt P10721, cells depend on it, form not given); assay: c-Kit assay: Ba/F3 KIT mutant cell viability (Cell Titer-Glo, 72 hours); assay type: cell-based; conditions: viability after 72 hours
T1 construct: BAF3 FL KIT EX11DEL
Method: (§1) Generation of DBa/F3 KIT Mutant Engineered Cell Lines
(§2) KIT cDNAs were synthesized by GenScript and cloned into the pLVX-IRES-Puro vector (Clontech). Viral particles were produced by transfecting pLVX-IRES-puro vectors containing KIT mutant genes into HEK293 cells (Invitrogen) using the Trans-Lentiviral ORF Packaging Kit (Thermo Scientific). 48 hours post-transfection, virus-containing supernatants were harvested and incubated for another 48-72 hours with parental Ba/F3 cells (DSMZ) in the presence of 10 ng/mL IL-3 (R&D Systems). Transduced Ba/F3 cells were then selected by IL-3 withdrawal and puromycin (0.5-1 μg/mL, Invitrogen).
(§3) Cell lines (e.g., EX11DEL, EX11DEL/D816H, EX11DEL/T670I, and EX11DEL/V654A) were plated into 384 well plates using RPMI 1640 supplemented with 10% FBS at densities that produced linear growth and incubated at 37° C. in 5% (v/v) CO2. Cells were treated with eight concentrations of compound over a 4-fold dilution (10 μM to 0.61 nM) and viability was assessed using Cell Titer-Glo assay (Promega) after 72 hours. Data were plotted as percent viability relative to vehicle-treated cells. Dose-responses curves were generated and used to calculate IC50 values.

[1] = biological target: T2, BAF3 FL KIT EX11DEL/D816H (Homo sapiens, UniProt P10721, D816H, cells depend on it, form not given); assay: as above; assay type: cell-based; conditions: viability after 72 hours
T2 construct: BAF3 FL KIT EX11DEL/D816H
T2 sequence (P10721 with tags, fused parts or gaps DEL557-558/D816H, form open): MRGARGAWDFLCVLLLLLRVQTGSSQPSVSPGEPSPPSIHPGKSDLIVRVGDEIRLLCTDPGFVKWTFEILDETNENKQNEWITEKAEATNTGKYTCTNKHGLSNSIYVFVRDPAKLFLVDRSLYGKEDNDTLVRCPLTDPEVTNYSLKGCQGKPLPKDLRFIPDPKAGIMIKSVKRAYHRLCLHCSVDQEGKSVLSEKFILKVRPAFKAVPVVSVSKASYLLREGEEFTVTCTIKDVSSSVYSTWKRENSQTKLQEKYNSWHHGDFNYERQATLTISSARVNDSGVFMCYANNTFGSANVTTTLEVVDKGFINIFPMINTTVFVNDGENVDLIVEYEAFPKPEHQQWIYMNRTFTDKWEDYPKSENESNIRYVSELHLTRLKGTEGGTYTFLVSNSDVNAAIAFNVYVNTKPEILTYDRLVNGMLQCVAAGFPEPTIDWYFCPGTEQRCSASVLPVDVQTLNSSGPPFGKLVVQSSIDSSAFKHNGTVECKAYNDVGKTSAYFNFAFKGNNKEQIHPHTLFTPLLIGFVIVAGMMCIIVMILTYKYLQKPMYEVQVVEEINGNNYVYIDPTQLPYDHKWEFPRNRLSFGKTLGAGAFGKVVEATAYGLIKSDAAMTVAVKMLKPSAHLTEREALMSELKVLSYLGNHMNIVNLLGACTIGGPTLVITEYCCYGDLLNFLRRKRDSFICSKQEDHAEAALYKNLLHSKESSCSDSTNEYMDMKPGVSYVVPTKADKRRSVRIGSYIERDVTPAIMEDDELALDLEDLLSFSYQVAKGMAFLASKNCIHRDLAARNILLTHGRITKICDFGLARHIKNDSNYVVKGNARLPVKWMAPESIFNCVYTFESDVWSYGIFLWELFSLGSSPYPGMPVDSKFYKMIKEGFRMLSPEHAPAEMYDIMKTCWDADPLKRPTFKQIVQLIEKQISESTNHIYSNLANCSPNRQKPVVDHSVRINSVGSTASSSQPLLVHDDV
Method: as §1, §2, §3

[2] = biological target: T3, BAF3 FL KIT EX11DEL/T670I (Homo sapiens, UniProt P10721, T670I, cells depend on it, form not given); assay: as above; assay type: cell-based; conditions: viability after 72 hours
T3 construct: BAF3 FL KIT EX11DEL/T670I
T3 sequence (P10721 with tags, fused parts or gaps DEL557-558/T670I, form open): as the sequence (P10721 with tags, fused parts or gaps DEL557-558/D816H, form open) above, with T668I, H814D counted along it
Method: as §1, §2, §3

[3] = biological target: T4, BAF3 FL KIT EX11DEL/V654A (Homo sapiens, UniProt P10721, V654A, cells depend on it, form not given); assay: as above; assay type: cell-based; conditions: viability after 72 hours
T4 construct: BAF3 FL KIT EX11DEL/V654A
T4 sequence (P10721 with tags, fused parts or gaps DEL557-558/V654A, form open): as the sequence (P10721 with tags, fused parts or gaps DEL557-558/D816H, form open) above, with V652A, H814D counted along it
Method: as §1, §2, §3

[4] = tested on: gastrointestinal stromal tumors (GIST); conditions: third line therapy; cited from earlier work

T1 sequence (P10721 with tags, fused parts or gaps DEL557-558): as the sequence (P10721 with tags, fused parts or gaps DEL557-558/D816H, form open) above, with H814D counted along it

| SMILES | GI50 (BAF3 FL KIT EX11DEL) | GI50 [1] | GI50 [2] | GI50 [3] | ORR [4] | median PFS [4] |
| --- | --- | --- | --- | --- | --- | --- |
| CNC(=O)Nc1ncc(C#Cc2cccc(C(=O)Nc3cc(C(F)(F)F)ccn3)c2)s1 [I-44, 3-((2-(3-methylureido)thiazol-5-yl)ethynyl)-N-(4-(trifluoromethyl)pyridin-2-yl)benzamide] | < 10 nM | 10 to 50 nM | < 10 nM | 10 to 50 nM |  |  |
| CNC(=O)Nc1ncc(C#Cc2cc(C(=O)Nc3cc(C(F)(F)F)ccn3)ccc2F)s1 [I-45, 4-fluoro-3-((2-(3-methylureido)thiazol-5-yl)ethynyl)-N-(4-(trifluoromethyl)pyridin-2-yl)benzamide] | < 10 nM | 10 to 50 nM | < 10 nM | 10 to 50 nM |  |  |
| COCCN(C)C(=O)Nc1ncc(C#Cc2cc(C(=O)Nc3ccc(CN4CCCC4)c(C(F)(F)F)c3)ccc2C)s1 [I-46, 3-((2-(3-(2-methoxyethyl)-3-methylureido)thiazol-5-yl)ethynyl)-4-methyl-N-(4-(pyrrolidin-1-ylmethyl)-3-(trifluoromethyl)phenyl)benzamide] | 10 to 50 nM | 10 to 50 nM | 10 to 50 nM | 50 to 100 nM |  |  |
| COCCN(C)C(=O)Nc1ncc(C#Cc2cc(C(=O)Nc3cccc(C(F)(F)F)c3OC)ccc2C)s1 [I-47, N-(2-methoxy-3-(trifluoromethyl)phenyl)-3-((2-(3-(2-methoxyethyl)-3-methylureido)thiazol-5-yl)ethynyl)-4-methylbenzamide] | < 10 nM | 10 to 50 nM | 100 to 10000 nM | 10 to 50 nM |  |  |
| COCCN(C)C(=O)Nc1ncc(C#Cc2cc(C(=O)Nc3ccc(C#N)c(C(F)(F)F)c3)ccc2C)s1 [I-48, N-(4-cyano-3-(trifluoromethyl)phenyl)-3-((2-(3-(2-methoxyethyl)-3-methylureido)thiazol-5-yl)ethynyl)-4-methylbenzamide] | < 10 nM | 10 to 50 nM | 10 to 50 nM | 50 to 100 nM |  |  |
| Cc1ccc(C(=O)Nc2cc(C(F)(F)F)ccn2)cc1C#Cc1cnc(NC(=O)C2CC2)s1 [I-49, 3-((2-(cyclopropanecarboxamido)thiazol-5-yl)ethynyl)-4-methyl-N-(4-(trifluoromethyl)pyridin-2-yl)benzamide] | < 10 nM | 10 to 50 nM | 10 to 50 nM | 10 to 50 nM |  |  |
| Cc1ccc(C(=O)Nc2ccc(CN3CCN(C)CC3)c(C(F)(F)F)c2)cc1C#Cc1cnc(NC(=O)C2CC2)s1 [I-50, 3-((2-(cyclopropanecarboxamido)thiazol-5-yl)ethynyl)-4-methyl-N-(4-((4-methylpiperazin-1-yl)methyl)-3-(trifluoromethyl)phenyl)benzamide] | 10 to 50 nM | 10 to 50 nM | 10 to 50 nM | 100 to 10000 nM |  |  |
| CC(=O)Nc1ncc(C#Cc2cc(C(=O)Nc3cc(C(F)(F)F)ccn3)ccc2C)s1 [I-51, 3-((2-acetamidothiazol-5-yl)ethynyl)-4-methyl-N-(4-(trifluoromethyl)pyridin-2-yl)benzamide] | < 10 nM | 10 to 50 nM | 10 to 50 nM | 10 to 50 nM |  |  |
| Cc1ccc(C(=O)Nc2cc(C(F)(F)F)ccn2)cc1C#Cc1cnc(NC(=O)C(C)(C)C)s1 [I-52, 4-methyl-3-((2-pivalamidothiazol-5-yl)ethynyl)-N-(4-(trifluoromethyl)pyridin-2-yl)benzamide] | 10 to 50 nM | 100 to 10000 nM | 100 to 10000 nM | 100 to 10000 nM |  |  |
| COCCN(C)C(=O)Nc1ncc(C#Cc2cc(NC(=O)c3cc(C(F)(F)F)ccn3)ccc2C)s1 [I-54, N-(3-((2-(3-(2-methoxyethyl)-3-methylureido)thiazol-5-yl)ethynyl)-4-methylphenyl)-4-(trifluoromethyl)picolinamide] | < 10 nM | 10 to 50 nM | 10 to 50 nM | 10 to 50 nM |  |  |
| Cc1ccc(NC(=O)c2cccc(OC(F)(F)F)c2)cc1C#Cc1cnc(NC(=O)N(C)C)s1 [I-56, N-(3-((2-(3,3-dimethylureido)thiazol-5-yl)ethynyl)-4-methylphenyl)-3-(trifluoromethoxy)benzamide] | < 10 nM | 10 to 50 nM | 10 to 50 nM | 10 to 50 nM |  |  |
| CNC(=O)Nc1ncc(C#Cc2cc(NC(=O)c3cc(C(F)(F)F)ccn3)ccc2C)s1 [I-57, N-(4-methyl-3-((2-(3-methylureido)thiazol-5-yl)ethynyl)phenyl)-4-(trifluoromethyl)picolinamide] | < 10 nM | < 10 nM | 10 to 50 nM | < 10 nM |  |  |
| Cc1ccc(NC(=O)c2cc(C(F)(F)F)ccn2)cc1C#Cc1cnc(NC(=O)N(C)CCN(C)C)s1 [I-58, N-(3-((2-(3-(2-(dimethylamino)ethyl)-3-methylureido)thiazol-5-yl)ethynyl)-4-methylphenyl)-4-(trifluoromethyl)picolinamide] | < 10 nM | 50 to 100 nM | 100 to 10000 nM | 50 to 100 nM |  |  |
| CCN(CC)CCN(C)C(=O)Nc1ncc(C#Cc2cc(NC(=O)c3cc(C(F)(F)F)ccn3)ccc2C)s1 [I-59, N-(3-((2-(3-(2-(diethylamino)ethyl)-3-methylureido)thiazol-5-yl)ethynyl)-4-methylphenyl)-4-(trifluoromethyl)picolinamide] | 10 to 50 nM | 50 to 100 nM | 100 to 10000 nM | 100 to 10000 nM |  |  |
| Cc1ccc(NC(=O)c2cc(C(F)(F)F)ccn2)cc1C#Cc1cnc(NC(=O)N(C)CCO)s1 [I-60, N-(3-((2-(3-(2-hydroxyethyl)-3-methylureido)thiazol-5-yl)ethynyl)-4-methylphenyl)-4-(trifluoromethyl)picolinamide] | < 10 nM | 10 to 50 nM | 50 to 100 nM | 10 to 50 nM |  |  |
| COCCN(C)C(=O)Nc1ncc(C#Cc2cccc(NC(=O)c3cc(C(F)(F)F)ccn3)c2)s1 [I-61, N-(3-((2-(3-(2-methoxyethyl)-3-methylureido)thiazol-5-yl)ethynyl)phenyl)-4-(trifluoromethyl)picolinamide] | < 10 nM | 10 to 50 nM | 10 to 50 nM | 10 to 50 nM |  |  |
| COCCN(C)C(=O)Nc1ncc(C#Cc2cc(NC(=O)c3cc(C(F)(F)F)ccn3)ccc2F)s1 [I-62, N-(4-fluoro-3-((2-(3-(2-methoxyethyl)-3-methylureido)thiazol-5-yl)ethynyl)phenyl)-4-(trifluoromethyl)picolinamide] | < 10 nM | 10 to 50 nM | < 10 nM | 10 to 50 nM |  |  |
| CNC(=O)c1cc(Oc2ccc(NC(=O)Nc3ccc(Cl)c(C(F)(F)F)c3)c(F)c2)ccn1 [Regorafenib] |  |  |  |  | 4.5% | 4.8 months |
